# Measured values reported in patent publication US12240816B2, “Deuterated compounds and uses thereof” (Aldeyra Therapeutics, Inc., priority 2015, dated 2025).
# pIC50, pKi: −log10 of the molar value. Several values for one entry are separate records, joined by “and”; a condition that tells them apart may be missing. Equal entries are not always repeated. Entries after “also recorded” stand apart in the source; their conditions may differ. Marks after values point to notes of the source that are not given here.
# How the values were obtained:
# [1] = target: T1, MT3 (ML2) (Mesocricetus auratus, UniProt A0ABM2YAB8); test: MT3 (ML2) (agonist radioligand) binding assay; conditions: MT3 (ML2) (agonist radioligand)
# T1 sequence (A0ABM2YAB8 1-231): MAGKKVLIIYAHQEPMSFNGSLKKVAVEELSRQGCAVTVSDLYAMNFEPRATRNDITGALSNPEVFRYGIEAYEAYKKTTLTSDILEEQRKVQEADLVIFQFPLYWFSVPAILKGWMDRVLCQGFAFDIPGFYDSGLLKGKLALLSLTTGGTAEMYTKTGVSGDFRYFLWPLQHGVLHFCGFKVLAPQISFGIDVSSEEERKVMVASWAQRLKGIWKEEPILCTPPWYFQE
# [2] = target: 5-HT2B (h) (Homo sapiens, UniProt P41595); test: 5-HT2B (h) (agonist radioligand) binding assay
# [3] = test system: rat hippocampal cultures; test: cells; type: cell-based; conditions: for % of Control (CFDA) / CFDA signal, Mean: CBD 10 μM + 10 μM hydrogen peroxide; for % of Control (CFDA) / CFDA signal, Mean / EC50 ± SE / Full Efficacy Concentration / No effect Concentration: 5 h; for Neuronal viability (CFDA), % of Control / Neuronal viability (CFDA), Mean / Neuronal viability (CFDA), individual values: 5 hours; for EC50 ± SE / Full Efficacy Concentration / No effect Concentration: Example 13, CFDA, 10 μM hydrogen peroxide, 0.1 to 300 μM tested
# [4] = test system: rat hippocampal cultures; test: Propidium iodide cell death assay, protection from hydrogen peroxide toxicity; type: cell-based; conditions: for % of Control (PI) / PI signal, replicate wells: CBD 10 μM + 10 μM hydrogen peroxide; for % of Control (PI) / PI signal, replicate wells / EC50 ± SE / Full Efficacy Concentration / No effect Concentration / protection from cell death: 5 h; for Cell death (Propidium Iodide), % of Control / Cell death (Propidium Iodide), Mean / Cell death (Propidium Iodide), individual values: 5 hours; for EC50 ± SE / Full Efficacy Concentration / No effect Concentration: Example 13, 0.1 to 300 μM tested; for EC50 ± SE / Full Efficacy Concentration / No effect Concentration / protection from cell death: PI, 10 μM hydrogen peroxide; for protection from cell death: 0.1 to 300 μM
# [5] = target: T2, PR (h) (Homo sapiens, UniProt P06401); test: PR (h) (agonist radioligand) binding assay
# T2 construct: T47D cells (cytosol)
# T2 sequence (P06401 679-933): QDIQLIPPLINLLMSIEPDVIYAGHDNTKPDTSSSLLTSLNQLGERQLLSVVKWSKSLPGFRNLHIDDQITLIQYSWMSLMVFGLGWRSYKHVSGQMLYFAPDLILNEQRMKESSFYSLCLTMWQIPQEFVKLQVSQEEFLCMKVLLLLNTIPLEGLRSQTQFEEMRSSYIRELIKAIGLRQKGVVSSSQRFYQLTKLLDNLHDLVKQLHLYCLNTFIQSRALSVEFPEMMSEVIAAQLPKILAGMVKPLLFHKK
# [6] = Experiment 9 (vehicle plates, Tables 17 and 18)
# [7] = positive control CBD + HP 10 μM
# [8] = Experiment 10 (vehicle plates, Tables 19 and 20)
# [9] = 0.1 μM + 10 μM hydrogen peroxide, DMSO
# [10] = 1 μM + 10 μM hydrogen peroxide, DMSO
# [11] = 10 μM + 10 μM hydrogen peroxide, DMSO
# [12] = 100 μM + 10 μM hydrogen peroxide, DMSO
# [13] = 300 μM + 10 μM hydrogen peroxide, DMSO
# 5-HT2B (h), sequence (P41595 whole entry): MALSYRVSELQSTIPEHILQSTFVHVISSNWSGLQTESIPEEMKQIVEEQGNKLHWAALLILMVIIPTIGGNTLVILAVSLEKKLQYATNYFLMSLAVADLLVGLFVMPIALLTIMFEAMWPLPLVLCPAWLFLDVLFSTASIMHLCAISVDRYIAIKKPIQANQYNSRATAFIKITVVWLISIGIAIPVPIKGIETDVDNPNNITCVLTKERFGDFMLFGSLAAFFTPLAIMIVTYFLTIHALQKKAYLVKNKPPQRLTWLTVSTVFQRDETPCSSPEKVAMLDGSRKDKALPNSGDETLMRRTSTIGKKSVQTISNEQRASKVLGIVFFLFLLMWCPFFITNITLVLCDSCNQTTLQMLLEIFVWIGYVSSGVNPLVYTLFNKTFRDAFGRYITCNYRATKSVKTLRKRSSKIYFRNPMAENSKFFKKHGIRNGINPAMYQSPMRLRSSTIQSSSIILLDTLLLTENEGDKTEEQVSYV
smiles,measurement,setting,value
COc1ccc2[nH]cc(CCNC(C)=O)c2c1 [melatonin],pIC50,[1],7.14
same,pKi,[1],7.15
same,nH,[1],0.8
COc1cc(CC(C)N)c(OC)cc1I (racemic) [(±)DO1],pIC50,[2],8.16
same,nH,[2],0.9
"C=C(C)[C@@H]1CCC(C)=C[C@H]1c1c(O)cc(CCCCC)cc1O [CBD, cannabidiol, reference compound]",% of Control (CFDA),[3]; [6],99 ± 7%
same,"CFDA signal, Mean",[3]; [6],43543*
same,% of Control (CFDA),[3]; Table 9 plate,105 ± 4%
same,"CFDA signal, Mean",[3]; Table 9 plate,48894*
same,% of Control (CFDA),[3]; Table 11 plate,103 ± 5%
same,"CFDA signal, Mean",[3]; Table 11 plate,44366*
same,% of Control (CFDA),[3]; Table 13 plate,102 ± 12%
same,"CFDA signal, Mean",[3]; Table 13 plate,40858*
same,% of Control (CFDA),[3]; Table 15 plate,100 ± 7%
same,"CFDA signal, Mean",[3]; Table 15 plate,41741*
same,"Neuronal viability (CFDA), % of Control",[3]; [7],101 ± 3% and 97 ± 4%
same,"Neuronal viability (CFDA), Mean",[3]; [7],57221* and 57590* and 55059*
same,% of Control (PI),[4]; [8],112 ± 7%
same,"PI signal, replicate wells",[4]; [8],184 and 156 and 180
same,% of Control (PI),[4]; Table 10 plate,97 ± 9%
same,"PI signal, replicate wells",[4]; Table 10 plate,117 and 180 and 121 and 192
same,% of Control (PI),[4]; Table 12 plate,102 ± 11%
same,"PI signal, replicate wells",[4]; Table 12 plate,125 and 117 (2×) and 180 (2×)
same,% of Control (PI),[4]; Table 14 plate,108 ± 11%
same,"PI signal, replicate wells",[4]; Table 14 plate,121 and 200 and 180 and 117
same,% of Control (PI),[4]; Table 16 plate,103 ± 8%
same,"PI signal, replicate wells",[4]; Table 16 plate,129 and 184 and 180 and 117
same,"Cell death (Propidium Iodide), % of Control",[4]; [7],93 ± 9% and 91 ± 10% and 91 ± 8%
same,"Cell death (Propidium Iodide), Mean",[4]; [7],154* and 136* and 145*
same,"Cell death (Propidium Iodide), individual values",[4]; [7],171 and 123 and 197 and 119 and 83 and 147 and 164 and 139 and 104 and 175
[2H]C([2H])([2H])C(O)(c1nc2ccc(Cl)cc2cc1N)C([2H])([2H])[2H] [ALD6],"Neuronal viability (CFDA), % of Control",[3]; [9],59 ± 3%
same,"Neuronal viability (CFDA), Mean",[3]; [9],34394
same,"Neuronal viability (CFDA), % of Control",[3]; [10],65 ± 5%
same,"Neuronal viability (CFDA), Mean",[3]; [10],38055
same,"Neuronal viability (CFDA), % of Control",[3]; [11],83 ± 4%
same,"Neuronal viability (CFDA), Mean",[3]; [11],48055*
same,"Neuronal viability (CFDA), % of Control",[3]; [12],98 ± 4%
same,"Neuronal viability (CFDA), Mean",[3]; [12],57123*
same,"Neuronal viability (CFDA), % of Control",[3]; [13],98 ± 4%
same,"Neuronal viability (CFDA), Mean",[3]; [13],56976*
same,"Neuronal viability (CFDA), individual values",[3]; [13],53184 (3×) and 59551 and 65778
same,"Cell death (Propidium Iodide), % of Control",[4]; [9],165 ± 15%
same,"Cell death (Propidium Iodide), Mean",[4]; [9],273
same,"Cell death (Propidium Iodide), individual values",[4]; [9],294 and 242 and 356 and 225 and 250
same,"Cell death (Propidium Iodide), % of Control",[4]; [10],120 ± 5%
same,"Cell death (Propidium Iodide), Mean",[4]; [10],198*
same,"Cell death (Propidium Iodide), individual values",[4]; [10],223 and 183 (2×) and 189 and 214
same,"Cell death (Propidium Iodide), % of Control",[4]; [11],107 ± 5%
same,"Cell death (Propidium Iodide), Mean",[4]; [11],176*
same,"Cell death (Propidium Iodide), individual values",[4]; [11],189 (2×) and 139 and 179 and 183
same,"Cell death (Propidium Iodide), % of Control",[4]; [12],108 ± 7%
same,"Cell death (Propidium Iodide), Mean",[4]; [12],178*
same,"Cell death (Propidium Iodide), individual values",[4]; [12],206 and 189 and 135 and 167 and 193
same,"Cell death (Propidium Iodide), % of Control",[4]; [13],107 ± 6%
same,"Cell death (Propidium Iodide), Mean",[4]; [13],176*
same,"Cell death (Propidium Iodide), individual values",[4]; [13],189 (2×) and 147 and 197 and 159
CC(C)(O)c1nc2ccccc2nc1N [ALD-2],EC50 ± SE,[3]; DMSO,Inactive
same,Full Efficacy Concentration,[3]; DMSO,Inactive
same,No effect Concentration,[3]; DMSO,Inactive
same,EC50 ± SE,[4]; DMSO,Inactive
same,Full Efficacy Concentration,[4]; DMSO,Inactive
same,No effect Concentration,[4]; DMSO,Inactive
same,protection from cell death,[4]; DMSO,no statistically significant protection from cell death; also recorded: did not produce statistically significant protection from cell death
CCC(=O)[C@@]1(C)CC[C@H]2[C@@H]3CCC4=CC(=O)CCC4=C3CC[C@@]21C [promegestone],pIC50,[5],9.33
same,pKi,[5],9.42
same,nH,[5],1.6
CC(C)(O)c1nc2ncccc2cc1N [ALD-5],EC50 ± SE,[3]; DMSO,Inactive
same,Full Efficacy Concentration,[3]; DMSO,Inactive
same,No effect Concentration,[3]; DMSO,Inactive
same,EC50 ± SE,[4]; DMSO,Inactive
same,Full Efficacy Concentration,[4]; DMSO,Inactive
same,No effect Concentration,[4]; DMSO,Inactive
same,protection from cell death,[4]; DMSO,no statistically significant protection from cell death; also recorded: did not produce statistically significant protection from cell death
CC(C)(O)c1nc2ncccc2cc1N [ALD5],"Neuronal viability (CFDA), % of Control",[3]; [9],69 ± 1%
same,"Neuronal viability (CFDA), Mean",[3]; [9],38942
same,"Neuronal viability (CFDA), % of Control",[3]; [10],66 ± 3%
same,"Neuronal viability (CFDA), Mean",[3]; [10],37447
same,"Neuronal viability (CFDA), % of Control",[3]; [11],65 ± 3%
same,"Neuronal viability (CFDA), Mean",[3]; [11],36940
same,"Neuronal viability (CFDA), % of Control",[3]; [12],66 ± 4%
same,"Neuronal viability (CFDA), Mean",[3]; [12],37605
same,"Neuronal viability (CFDA), % of Control",[3]; [13],74 ± 1%
same,"Neuronal viability (CFDA), Mean",[3]; [13],42249
same,"Cell death (Propidium Iodide), % of Control",[4]; [9],202 ± 15%
same,"Cell death (Propidium Iodide), Mean",[4]; [9],301
same,"Cell death (Propidium Iodide), individual values",[4]; [9],225 and 325 and 294 (2×) and 366
same,"Cell death (Propidium Iodide), % of Control",[4]; [10],196 ± 1%
same,"Cell death (Propidium Iodide), Mean",[4]; [10],292
same,"Cell death (Propidium Iodide), individual values",[4]; [10],285 and 294 (4×)
same,"Cell death (Propidium Iodide), % of Control",[4]; [11],191 ± 11%
same,"Cell death (Propidium Iodide), Mean",[4]; [11],285
same,"Cell death (Propidium Iodide), individual values",[4]; [11],294 (3×) and 320 and 225
same,"Cell death (Propidium Iodide), % of Control",[4]; [12],181 ± 7%
same,"Cell death (Propidium Iodide), Mean",[4]; [12],269
same,"Cell death (Propidium Iodide), individual values",[4]; [12],250 (2×) and 294 (2×) and 255
same,"Cell death (Propidium Iodide), % of Control",[4]; [13],205 ± 8%
same,"Cell death (Propidium Iodide), Mean",[4]; [13],305
same,"Cell death (Propidium Iodide), individual values",[4]; [13],294 (3×) and 293 and 352
CC(C)(O)c1nc2ccccc2nc1N [ALD2],"Neuronal viability (CFDA), % of Control",[3]; [9],67 ± 3%
same,"Neuronal viability (CFDA), Mean",[3]; [9],38243
same,"Neuronal viability (CFDA), individual values",[3]; [9],40839 (3×) and 34813 and 33885
same,"Neuronal viability (CFDA), % of Control",[3]; [10],67 ± 4%
same,"Neuronal viability (CFDA), Mean",[3]; [10],38073
same,"Neuronal viability (CFDA), % of Control",[3]; [11],71 ± 5%
same,"Neuronal viability (CFDA), Mean",[3]; [11],40512
same,"Neuronal viability (CFDA), % of Control",[3]; [12],68 ± 4%
same,"Neuronal viability (CFDA), Mean",[3]; [12],38674
same,"Neuronal viability (CFDA), % of Control",[3]; [13],72 ± 4%
same,"Neuronal viability (CFDA), Mean",[3]; [13],41274
same,"Cell death (Propidium Iodide), % of Control",[4]; [9],172 ± 5%
same,"Cell death (Propidium Iodide), Mean",[4]; [9],274
same,"Cell death (Propidium Iodide), individual values",[4]; [9],258 and 294 (2×) and 259 and 266
same,"Cell death (Propidium Iodide), % of Control",[4]; [10],166 ± 9%
same,"Cell death (Propidium Iodide), Mean",[4]; [10],264
same,"Cell death (Propidium Iodide), individual values",[4]; [10],229 and 294 and 258 and 242 and 298
same,"Cell death (Propidium Iodide), % of Control",[4]; [11],167 ± 13%
same,"Cell death (Propidium Iodide), Mean",[4]; [11],266
same,"Cell death (Propidium Iodide), individual values",[4]; [11],293 and 329 and 258 and 225 (2×)
same,"Cell death (Propidium Iodide), % of Control",[4]; [12],157 ± 8%
same,"Cell death (Propidium Iodide), Mean",[4]; [12],249
same,"Cell death (Propidium Iodide), individual values",[4]; [12],225 (2×) and 258 and 242 and 294
same,"Cell death (Propidium Iodide), % of Control",[4]; [13],182 ± 8%
same,"Cell death (Propidium Iodide), Mean",[4]; [13],290
same,"Cell death (Propidium Iodide), individual values",[4]; [13],302 and 294 (2×) and 320 and 242
